We go through 3 molecules from publication PMC4541407 (2015).

Some results are limits rather than exact numbers.

The subject of assay [1] is c-KIT1 (dual labelled) (DNA, G4) GGGAGGGCGCTGGGAGGGAGGG
Briefly: FRET melting.

Assay [2] relates to ds DNA (dual labelled) (DNA, duplex) CCAGTTCGTAGTAACCC/GGGTTACTACGAACTGG
In words: FRET melting. As to conditions: 50 mM K+, 50 mM potassium cacodylate pH 7.4.

Assay [3] concerns c-KIT2 (dual labelled) (DNA, G4) GGGCGGGCGCGAGGGAGGGG
In words: FRET melting.

Assay [4] has as its system c-MYC (dual labelled) (DNA, G4) TGAGGGTGGGTAGGGTGGGTAA
In words: FRET melting.

For assay [5], the system named is c-MYC (DNA, G4) TGAGGGTGGGTAGGGTGGGTAA
In words: fluorescence titration. Conditions: 100 mM Tris-HCl pH 7.4, 25 °C; for KD: 100 mM K+, 1.0 µM ligand, DNA 0-6 equiv.

Assay [6] has as its system c-KIT2 (DNA, G4) GGGCGGGCGCGAGGGAGGGG
In words: fluorescence titration. Conditions: 100 mM K+; 100 mM Tris-HCl pH 7.4, 25 °C; 1.0 µM ligand, DNA 0-6 equiv.

The subject of assay [7] is c-KIT1 (DNA, G4) GGGAGGGCGCTGGGAGGGAGGG
Briefly: fluorescence titration. Conditions: 100 mM K+; 100 mM Tris-HCl pH 7.4, 25 °C; 1.0 µM ligand, DNA 0-6 equiv.

Assay [8] concerns c-MYC (NMR oligonucleotide) (DNA, G4) TGAGGGTGGGTAGGGTGGGTAA
Briefly: 1H NMR imino titration.

The test system of assay [9] is ds DNA (DNA, duplex) CCAGTTCGTAGTAACCC/GGGTTACTACGAACTGG
In words: fluorescence titration. As to conditions: 100 mM K+; 100 mM Tris-HCl pH 7.4, 25 °C; 1.0 µM ligand, DNA 0-6 equiv.

Setting [10] is: 50 mM K+, 50 mM potassium cacodylate pH 7.4, 1.0 µM ligand.

Turning to `C#Cc1ccc2c(c1)c1cc(C#C)ccc1n2CCCN(C)C`, the binding result in assay [1] (setting [10]), in assay [2] (1.0 µM ligand), in assay [3] (setting [10]) and in assay [4] (setting [10]) was “no” throughout.

In the case of `CN(C)CCCNC(=O)c1ccc(-n2cc(-c3ccc4c(c3)c3cc(-c5cn(-c6ccc(C(=O)NCCCN(C)C)cc6)nn5)ccc3n4CCCN(C)C)nn2)cc1`, the equilibrium dissociation constant (KD) was determined as 0.3 ± 0.015 µM in [5], 1.37 ± 0.06 µM in [6] and 1.38 ± 0.07 µM in assay [7]. Further, the binding entry in [5] (no added K+, 5.5-fold enhancement, 25 nm blue shift, Kd n.d.) is reported as “yes”; in assay [1] (no added K+, MQ water pH 7.4, saturation at 1 µM ligand), “yes”; in [2] (up to 1.0 µM ligand), “no”; in assay [3] (no added K+, MQ water pH 7.4, saturation at 750 nM ligand), “yes”; in assay [4] (no added K+, MQ water pH 7.4, saturation at 250 nM ligand), “yes”; in assay [8] (100 mM K+, 25 mM Tris-HCl pH 7.4, 298 K, 100 µM DNA, binds minor conformation), “yes”. The binding entry in assay [8] (no added K+, 25 mM Tris-HCl pH 7.4, 298 K, 100 µM DNA, binds minor conformation) is “yes”. The ΔTm in [1] (50 mM K+, 50 mM potassium cacodylate pH 7.4, 750 nM ligand, maximum measurable shift) was 39.4 ± 2.5 K; in [3] (50 mM K+, 50 mM potassium cacodylate pH 7.4, 500 nM ligand, maximum measurable shift), 23.2 ± 1.6 K; in [4] (50 mM K+, 50 mM potassium cacodylate pH 7.4, 100 nM ligand, maximum measurable shift), 22.7 ± 1.4 K. The Kd in [9] is over 10.0 µM.

As for `CN(C)CCCn1c2ccc(-c3cn(-c4ccc(N)cc4)nn3)cc2c2cc(-c3cn(-c4ccc(N)cc4)nn3)ccc21`, the equilibrium dissociation constant (KD) in assay [5] is over 20 µM. Moreover, the binding result in assay [4] (setting [10]) is “yes”; in assay [8] (100 mM K+, 25 mM Tris-HCl pH 7.4, stabilizes minor conformation(s)), “yes”.

As usually defined, the KD is a measure of binding affinity in units of concentration. The term Kd denotes the constant that tells how readily two partners part at equilibrium.
